From patent US5173496A, “Therapeutic preparations containing indazole derivatives” (ICI Pharma, priority 1987, dated 1992)

Assays:
[1] = molecular target: T1, 5-LO (Rattus norvegicus, UniProt P12527); test: Test (b): in vitro heparinised rat blood, A23187 challenge, LTB4 radioimmunoassay (5-LO); type: cell-based
T1 construct: challenge with A23187 and radioimmunoassay of LTB4 and PGE2; endogenous in cells; host or cells: blood collected after oral dosing, heparinised
T1 sequence (P12527 1-673): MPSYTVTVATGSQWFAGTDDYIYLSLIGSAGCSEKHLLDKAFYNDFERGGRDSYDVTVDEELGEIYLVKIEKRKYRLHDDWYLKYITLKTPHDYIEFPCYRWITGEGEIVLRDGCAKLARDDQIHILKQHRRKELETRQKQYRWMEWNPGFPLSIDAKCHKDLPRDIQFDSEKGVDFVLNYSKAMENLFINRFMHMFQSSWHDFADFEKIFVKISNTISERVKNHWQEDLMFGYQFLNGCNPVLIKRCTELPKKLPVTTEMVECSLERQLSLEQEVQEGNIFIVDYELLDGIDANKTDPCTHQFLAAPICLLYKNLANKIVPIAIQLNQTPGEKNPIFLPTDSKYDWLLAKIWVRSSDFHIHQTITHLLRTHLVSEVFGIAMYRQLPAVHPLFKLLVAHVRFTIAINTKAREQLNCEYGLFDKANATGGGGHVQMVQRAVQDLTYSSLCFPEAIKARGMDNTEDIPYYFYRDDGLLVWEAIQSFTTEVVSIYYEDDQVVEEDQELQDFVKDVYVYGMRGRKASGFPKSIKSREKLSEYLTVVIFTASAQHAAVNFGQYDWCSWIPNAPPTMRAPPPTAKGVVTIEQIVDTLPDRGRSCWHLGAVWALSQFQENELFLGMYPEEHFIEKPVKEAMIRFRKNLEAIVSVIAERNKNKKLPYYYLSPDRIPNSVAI
Protocol: (§1) b) An in vitro assay system involving incubating a test compound with heparinised rat blood, prior to challenge with the calcium ionophore A23187 and then indirectly measuring the inhibitory effects on 5-LO by assaying the amount of LTB4 using the specific radioimmunoassay described by Carey and Forder (F. Carey and R. A. Forder, Brit. J. Pharmacol. 1985, 84, 34P) which involves the use of a protein-LTB4 conjugate produced using the procedure of Young et alia (Prostaglandins, 1983, 26(4), 605-613). The effects of a test compound on the enzyme cyclooxygenase (which is involved in the alternative metabolic pathway for arachidonic acid and gives rise to prostaglandins, thromboxanes and related metabolites) may be measured at the same time using the specific radioimmunoassay for prostaglandin E2 (PGE2) described by Carey and Forder (see above). This test provides an indication of the effects of a test compound against 5-LO and also cyclooxygenase in the presence of blood cells and proteins. It permits the selectivity of the inhibitory effect on 5-LO or cyclooxygenase to be assessed.

[2] = molecular target: T2, cyclooxygenase (Rattus norvegicus, UniProt Q63921); test: Test (b): in vitro heparinised rat blood, A23187 challenge, PGE2 radioimmunoassay (cyclooxygenase); type: cell-based
T2 construct: incubating a test compound with heparinised rat blood; endogenous in cells; host or cells: heparinised rat blood (platelets and leukocytes)
T2 sequence (Q63921 27-602): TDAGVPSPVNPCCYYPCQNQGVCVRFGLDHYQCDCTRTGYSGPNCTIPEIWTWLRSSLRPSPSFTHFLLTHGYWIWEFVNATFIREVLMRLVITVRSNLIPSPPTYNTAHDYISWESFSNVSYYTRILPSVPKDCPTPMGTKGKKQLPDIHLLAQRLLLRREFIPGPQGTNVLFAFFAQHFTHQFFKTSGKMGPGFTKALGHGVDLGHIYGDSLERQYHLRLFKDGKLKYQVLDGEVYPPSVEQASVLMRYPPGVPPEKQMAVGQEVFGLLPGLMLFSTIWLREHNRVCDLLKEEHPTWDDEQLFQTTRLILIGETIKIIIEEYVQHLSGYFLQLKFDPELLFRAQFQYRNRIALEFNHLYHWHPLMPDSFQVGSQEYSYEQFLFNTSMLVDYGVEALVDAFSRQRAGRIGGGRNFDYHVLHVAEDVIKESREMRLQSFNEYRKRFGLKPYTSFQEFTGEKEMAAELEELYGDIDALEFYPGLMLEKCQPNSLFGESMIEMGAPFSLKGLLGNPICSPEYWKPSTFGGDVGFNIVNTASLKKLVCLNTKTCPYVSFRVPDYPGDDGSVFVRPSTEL
Protocol: as §1

[3] = molecular target: T1, 5-LO; test: Test (c): ex vivo assay, oral dosing, blood A23187 challenge, LTB4 radioimmunoassay; type: in vivo
Protocol: as §1
(§2) c) An ex vivo assay system, which is a variation of test (b) above, involving administration of a test compound (usually orally as a suspension in carboxymethylcellulose)blood collection, heparinisation, challenge with A23187 and radioimmunoassay of LTB4 and PGE2. […]

[4] = molecular target: T2, cyclooxygenase; test: Test (c): ex vivo assay, oral dosing, blood A23187 challenge, PGE2 radioimmunoassay; type: in vivo
Protocol: as §1, §2

[5] = molecular target: T3, 5-LO isolated from guinea pig neutrophils (Cavia porcellus, UniProt A0A286X958); test: Test (a): in vitro spectrophotometric enzyme assay, cell free system, 5-LO isolated from guinea pig neutrophils; type: biochemical
T3 construct: 5-LO isolated from guinea pig neutrophils; from tissue; host or cells: guinea pig neutrophils
T3 sequence (A0A286X958 1-674): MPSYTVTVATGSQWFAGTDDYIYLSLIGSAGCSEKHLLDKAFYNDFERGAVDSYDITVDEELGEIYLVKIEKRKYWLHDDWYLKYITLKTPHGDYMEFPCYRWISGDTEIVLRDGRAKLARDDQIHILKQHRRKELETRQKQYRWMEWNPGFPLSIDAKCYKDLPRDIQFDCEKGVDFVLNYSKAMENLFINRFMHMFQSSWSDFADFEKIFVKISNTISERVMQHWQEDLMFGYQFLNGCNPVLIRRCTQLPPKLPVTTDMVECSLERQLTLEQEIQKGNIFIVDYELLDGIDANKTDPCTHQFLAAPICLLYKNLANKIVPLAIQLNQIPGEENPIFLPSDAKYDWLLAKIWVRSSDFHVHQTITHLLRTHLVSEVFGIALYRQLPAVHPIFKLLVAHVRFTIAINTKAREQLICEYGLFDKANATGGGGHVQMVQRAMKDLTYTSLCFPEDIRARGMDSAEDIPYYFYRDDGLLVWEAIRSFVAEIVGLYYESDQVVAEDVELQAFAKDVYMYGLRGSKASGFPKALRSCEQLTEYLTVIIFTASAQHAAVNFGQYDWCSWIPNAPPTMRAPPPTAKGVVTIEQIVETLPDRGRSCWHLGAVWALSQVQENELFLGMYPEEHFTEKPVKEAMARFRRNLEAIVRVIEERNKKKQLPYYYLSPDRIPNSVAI
Excerpt: a) An in vitro spectrophotometric enzyme assay system, which assesses the inhibitory properties of a test compound in a cell free system using 5-LO isolated from guinea pig neutrophils and as described by D. Aharony and R. L. Stein (J. Biol. Chem., 1986, 261(25), 11512-11519). This test provides a measure of the intrinsic inhibitory properties against soluble 5-LO in an extracellular environment.

[6] = system: carrageenin induced oedema in rat paws; test: carrageenin induced oedema in rat paws; type: in vivo; conditions: dosed orally at 100 mg/kg
Excerpt: A specific known indazolone of formula I which is of particular interest as an inhibitor of 5-LO is, for example, 1,2-dihydro-2-benzylindazol-3-one.

[7] = system: carrageenin induced oedema in rat paws; conditions: J. Heterocyclic Chemistry, 1970, 7, 815-820; cited from earlier work

Q: For `O=c1c2ccccc2[nH]n1Cc1cccnc1` [Example 24], which IC50 [1] is on record?
A: < 5 µM

Q: And the IC50 [2]?
A: > 100 µM

Q: And the ED50 [3]?
A: < 10 mg/kg

Q: And the ED50 [4]?
A: > 100 mg/kg

Q: Which IC50 [5] does the source give for `O=c1c2ccccc2[nH]n1Cc1cccc2ccccc12` [Example 1, 1,2-dihydro-2-(1-naphthylmethyl)-3H-indazol-3-one] here?
A: 1.7 µM

Q: And the IC50 [1]?
A: 0.8 µM

Q: And the IC50 [2]?
A: 100 µM

Q: What about the ED50 [3] of the same molecule?
A: 30 mg/kg

Q: Which “significant effects in carrageenin induced oedema in rat paws” value [6] does the source give for `O=c1c2ccccc2[nH]n1Cc1ccccc1` [1,2-dihydro-2-benzylindazol-3-one] here?
A: unable to detect any significant effects

Q: What about the “anti-inflammatory properties in carrageenin induced oedema in rat paws” value [7] of the same molecule?
A: weak anti-inflammatory properties
